Test results published in paper PMC4455059 (Nature Communications, 2015).
Where two headings read alike, the source gives them in different places. Non-standard residues stand in square brackets, D forms with d. Residues, ends and D or L forms follow the SMILES beside them. Phe(3-I) = N[C@@H](Cc1cccc(I)c1)C(=O)O; Phe(4-I) = N[C@@H](Cc1ccc(I)cc1)C(=O)O

Tests used:
chymotrypsin = experiment: Proteolytic degradation assay (chymotrypsin-based protocol); type: in vitro ADME; conditions: for half-life: chymotrypsin-based protocol (protocol of ref 51), HPLC-MS read-out, Fig. 4b, read-out: t1/2, proteolytic degradation; for protection towards enzymatic degradation (in words): chymotrypsin, after 5–6 h, HPLC-MS profiles
Method: Figure 4 Bioactive stapled peptides, biochemical and cellular studies. (a) Structure of stapled peptides 2l (valorphin analogue) and 2m (baratin analogue). (b) Proteolytic degradation assay of stapled peptides 2g and 2h and their linear precursors 1g and 1h. (c) Structure of labelled-stapled peptide 2j Bodipy (left) and the corresponding confocal microscopy image of SH-SY5Y cells treated with compound 2j Bodipy (750 nM). Scale bar, 25 μm (right).
Next, we determined the proteolytic stability of a couple of meaningful stapled peptides, in comparison with their respective linear counterparts. We followed a chymotrypsin-based protocol, previously used to evaluate stapled peptides.

ανβ3 integrin receptors = ανβ3 integrin receptors (Homo sapiens, UniProt P05106+P06756); experiment: Inhibition of cellular adhesion (integrin antagonism); type: cell-based
Chain of ανβ3 integrin receptors (P06756 31-889 limits assumed): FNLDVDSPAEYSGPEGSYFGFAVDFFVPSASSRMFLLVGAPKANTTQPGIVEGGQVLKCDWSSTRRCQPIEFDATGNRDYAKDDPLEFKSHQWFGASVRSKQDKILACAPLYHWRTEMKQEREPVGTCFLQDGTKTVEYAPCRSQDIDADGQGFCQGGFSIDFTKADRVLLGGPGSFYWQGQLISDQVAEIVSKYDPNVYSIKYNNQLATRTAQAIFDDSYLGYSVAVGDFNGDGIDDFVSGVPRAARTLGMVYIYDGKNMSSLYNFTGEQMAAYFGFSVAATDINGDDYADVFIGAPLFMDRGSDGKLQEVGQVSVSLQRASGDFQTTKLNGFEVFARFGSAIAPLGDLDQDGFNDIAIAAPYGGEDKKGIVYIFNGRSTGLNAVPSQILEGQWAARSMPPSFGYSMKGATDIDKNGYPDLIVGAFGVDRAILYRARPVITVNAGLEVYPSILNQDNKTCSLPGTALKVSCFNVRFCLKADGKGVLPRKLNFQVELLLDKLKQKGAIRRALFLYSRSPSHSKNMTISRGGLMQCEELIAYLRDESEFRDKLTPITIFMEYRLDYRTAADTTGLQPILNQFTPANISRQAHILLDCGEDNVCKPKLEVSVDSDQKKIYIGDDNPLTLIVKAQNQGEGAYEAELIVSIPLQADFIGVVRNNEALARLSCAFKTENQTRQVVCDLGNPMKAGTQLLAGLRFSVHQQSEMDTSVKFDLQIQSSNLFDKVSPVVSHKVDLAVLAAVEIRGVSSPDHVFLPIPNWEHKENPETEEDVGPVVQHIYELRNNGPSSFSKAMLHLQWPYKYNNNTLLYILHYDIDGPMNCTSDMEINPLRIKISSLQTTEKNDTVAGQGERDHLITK
Chain of ανβ3 integrin receptors (P06756 891-1048 partner limits assumed): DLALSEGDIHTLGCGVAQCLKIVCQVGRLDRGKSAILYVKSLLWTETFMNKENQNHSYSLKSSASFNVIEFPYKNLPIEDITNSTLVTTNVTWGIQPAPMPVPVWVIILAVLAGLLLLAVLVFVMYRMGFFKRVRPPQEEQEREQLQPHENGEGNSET
Chain of ανβ3 integrin receptors (P05106 27-788): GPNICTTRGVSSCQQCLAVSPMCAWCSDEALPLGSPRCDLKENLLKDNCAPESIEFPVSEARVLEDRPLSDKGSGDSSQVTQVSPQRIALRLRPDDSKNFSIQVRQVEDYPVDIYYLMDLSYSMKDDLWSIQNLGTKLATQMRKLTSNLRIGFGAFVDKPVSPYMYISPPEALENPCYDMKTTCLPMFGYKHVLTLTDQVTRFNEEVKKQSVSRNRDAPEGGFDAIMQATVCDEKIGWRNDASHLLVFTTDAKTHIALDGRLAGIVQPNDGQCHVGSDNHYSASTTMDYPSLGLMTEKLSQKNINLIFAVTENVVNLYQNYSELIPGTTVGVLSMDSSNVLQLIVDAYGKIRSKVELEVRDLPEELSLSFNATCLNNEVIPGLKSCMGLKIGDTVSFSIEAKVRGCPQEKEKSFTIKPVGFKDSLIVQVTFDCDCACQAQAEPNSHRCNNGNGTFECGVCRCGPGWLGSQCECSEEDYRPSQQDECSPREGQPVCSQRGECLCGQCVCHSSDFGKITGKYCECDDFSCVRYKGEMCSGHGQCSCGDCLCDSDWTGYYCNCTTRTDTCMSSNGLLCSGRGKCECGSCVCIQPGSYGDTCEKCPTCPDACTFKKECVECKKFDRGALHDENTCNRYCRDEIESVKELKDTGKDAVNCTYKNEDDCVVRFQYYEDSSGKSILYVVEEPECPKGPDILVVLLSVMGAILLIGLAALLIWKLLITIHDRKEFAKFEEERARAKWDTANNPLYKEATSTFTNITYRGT
Text: However, it has to be considered that even linear analogues display a much lower potency (10–10^3 times, depending on the targeted integrin) than the parent cilengitide.

SH-SY5Y cells [1] = experiment: Cytotoxicity, MTT assay; type: cell-based; conditions: 750 nM, 24 h incubation, triplicate, three independent experiments
Text: (§1) Finally, we studied the controlled labelling of the stapled peptides. The goal was to selectively attach a fluorophore to the C-terminal amino acid to trace cellular permeabilization and localization. Thus, we linked a Bodipy residue to cyclopeptide 2j through an amino spacer (the novel Bodipy construct was designed and prepared for this purpose, see Supplementary Fig. 16 and Supplementary Methods), to get the desired labelled-stapled peptide 2j Bodipy (Fig. 4c) in a convenient manner. […] The cells treated in this manner were analysed using confocal microscopy.
(§2) Supplementary Figure 17 Cytotoxicity of 1j-Bodipy and 2j-Bodipy peptides using the MTT assay. The toxicity assay was carried out as described in the literature.13 SH-SY5Y cells were transferred to 96-well plates (100 μL medium/well) at a density of 5000 cell/well. After 24 h, cells in triplicate were treated either with 1j-Bodipy or 2j-Bodipy (750 nM and 50 µM) or TRITON 0.2% as positive control for 24 h. Values are represented as means ± SD from three independent experiments.
(§3) Supplementary Figure 18 FACS analysis of SH-SY5Y cells upon incubation with 1j-Bodipy and 2j-Bodipy. For FACS analysis, SH-SY5Y cells were seeded on a plastic 24 well plate and cultured for 24 h. […] Fluorescence sorting was performed with a Gallios Beckman Coulter flow […]

SH-SY5Y cells [2] = experiment: Cell penetration and localization (FACS flow cytometry and confocal microscopy); type: cell-based; conditions: 750 nM
Text: as §1, §2, §3

[3] = cc_pd bond
[4] = tested on: several cancer cell lines; experiment: Preliminary biological studies against several cancer cell lines; type: cell-based
Text: Nevertheless, the protocol seems general and offers new possibilities for peptide-based conjugation.

α-chymotrypsin = experiment: chymotrypsin-based protocol; conditions: up to 6 h

Molecule: CC(=O)N[C@@H](Cc1cccc(I)c1)C(=O)N[C@@H](CC(N)=O)C(=O)NCC(=O)N[C@@H](CCCNC(=N)N)C(=O)N[C@@H](Cc1c[nH]c2ccccc12)C(N)=O [1g, Ac-m-I-Phe-Asn-Gly-Arg-Trp-NH2] (Ac-[Phe(3-I)]NGRW-NH2)
- half-life (chymotrypsin): 19.8 min
- protection towards enzymatic degradation (in words) (chymotrypsin): completely disappeared

Molecule: CC(=O)N[C@@H](Cc1cccc(I)c1)C(=O)N[C@@H](CCCNC(=N)N)C(=O)NCC(=O)N[C@@H](CC(=O)O)C(=O)N[C@@H](Cc1c[nH]c2ccccc12)C(N)=O [1h, Ac-m-I-Phe-Arg-Gly-Asp-Trp-NH2] (Ac-[Phe(3-I)]RGDW-NH2)
- half-life (chymotrypsin): 52.5 min
- protection towards enzymatic degradation (in words) (chymotrypsin): completely disappeared
- EC50 (ανβ3 integrin receptors; preliminary studies, ανβ3 integrin antagonism, read-out: EC50, capacity to inhibit cellular adhesion): 26 µM

Molecule: CC(=O)N[C@H]1Cc2cccc(c2)-c2[nH]c3ccccc3c2C[C@@H](C(N)=O)NC(=O)[C@H](CC(=O)O)NC(=O)CNC(=O)[C@H](CCCNC(=N)N)NC1=O [2h]
- protection towards enzymatic degradation (in words) (chymotrypsin): almost total protection
- selectivity ανβ3 versus ανβ5 integrin receptors (in words) (ανβ3 integrin receptors; preliminary cellular adhesion studies): act selectively as antagonists for the ανβ3 in front of ανβ5 integrin receptors

Molecule: CC(=O)N[C@@H](C)C(=O)N[C@H]1Cc2cccc(c2)-c2[nH]c3ccccc3c2C[C@@H](C(=O)N[C@@H](C)C(=O)NCCNC(=O)CCC(=O)Nc2ccc(C3=C4C(C)=CC(C)=[N+]4[B-](F)(F)n4c(C)cc(C)c43)cc2)NC(=O)[C@H](C(C)C)NC1=O [2j Bodipy]
- cytotoxicity (in words) (SH-SY5Y cells [1]): low cytotoxicity
- cellular localization / penetration (in words) (SH-SY5Y cells [2]; incubation 30 min at 37 °C, confocal microscopy, fluorescence): localized both in the membrane and in the cytoplasmatic region
- cell staining in flow cytometry (FACS) (in words) (SH-SY5Y cells [2]; incubation for 30 min, 37 °C, 5% CO2, fluorescence): brightly stained

Molecule: CC(=O)N[C@@H](C)C(=O)N[C@H]1Cc2ccccc2-c2[nH]c3ccccc3c2C[C@@H](C(=O)N[C@@H](C)C(=O)O)NC1=O [Ac-Ala-Phe(2-I)-Trp-Ala-OH?]
- ring closure, conversion ([3]; from Ac-Ala-Phe(2-I)-Trp-Ala-OH?, 10-membered ring, Pd(OAc)2/AgBF4/TFA?): 0%

Molecule: CC(=O)N[C@@H](C)C(=O)N[C@H]1Cc2cccc(c2)-c2[nH]c3ccccc3c2C[C@@H](C(=O)N[C@@H](C)C(=O)O)NC(=O)[C@H](C)NC(=O)[C@H](C)NC(=O)[C@H](C)NC1=O [Ac-Ala-Phe(3-I)-Ala-Ala-Ala-Trp-Ala-OH]
- ring closure, conversion ([3]; from Ac-Ala-Phe(3-I)-Ala-Ala-Ala-Trp-Ala-OH, 20-membered ring, Pd(OAc)2 5 mol%/AgBF4/2-NO2BzOH, MW 15 min, DMF:PBS 1:1, 80.0 °C): 100%

Molecule: CC(=O)N[C@@H](C)C(=O)N[C@H]1Cc2cccc(c2)-c2[nH]c3ccccc3c2C[C@@H](C(=O)N[C@@H](C)C(=O)O)NC(=O)[C@H](C)NC(=O)[C@H](C)NC1=O [Ac-Ala-Phe(3-I)-Ala-Ala-Trp-Ala-OH]
- ring closure, conversion ([3]; from Ac-Ala-Phe(3-I)-Ala-Ala-Trp-Ala-OH, 17-membered ring, Pd(OAc)2 5 mol%/AgBF4/2-NO2BzOH, MW 15 min, DMF:PBS 1:1, 80.0 °C): 100%

Molecule: CC(=O)N[C@@H](C)C(=O)N[C@H]1Cc2cccc(c2)-c2[nH]c3ccccc3c2C[C@@H](C(=O)N[C@@H](C)C(=O)O)NC(=O)[C@H](C)NC1=O [Ac-Ala-Phe(3-I)-Ala-Trp-Ala-OH]
- ring closure, conversion ([3]; from Ac-Ala-Phe(3-I)-Ala-Trp-Ala-OH, 14-membered ring, Pd(OAc)2 5 mol%/AgBF4/2-NO2BzOH, MW 15 min, DMF:PBS 1:1, 80.0 °C): 38%

Molecule: CC(=O)N[C@@H](C)C(=O)N[C@H]1Cc2cccc(c2)-c2[nH]c3ccccc3c2C[C@@H](C(=O)N[C@@H](C)C(=O)O)NC1=O [Ac-Ala-Phe(3-I)-Trp-Ala-OH?]
- ring closure, conversion ([3]; from Ac-Ala-Phe(3-I)-Trp-Ala-OH?, 11-membered ring, Pd(OAc)2/AgBF4/TFA?): 60%

Molecule: CC(=O)N[C@@H](C)C(=O)N[C@H]1Cc2cccc(c2)-c2[nH]c3ccccc3c2C[C@@H](C(=O)N[C@@H](C)C(=O)O)NC(=O)[C@H](C(C)C)NC1=O [Ac-Ala-Phe(3-I)-Val-Trp-Ala-OH]
- ring closure, conversion ([3]; from Ac-Ala-Phe(3-I)-Val-Trp-Ala-OH, 14-membered ring, Pd(OAc)2 5 mol%/AgBF4/TFA, MW 20 min, DMF, 55.0 mM, 90.0 °C): 71%

Molecule: CC(=O)N[C@@H](C)C(=O)N[C@H]1Cc2ccc(cc2)-c2[nH]c3ccccc3c2C[C@@H](C(=O)N[C@@H](C)C(=O)O)NC(=O)[C@@H](NC(=O)[C@H](C)NC(C)=O)Cc2ccc(cc2)-c2[nH]c3ccccc3c2C[C@@H](C(=O)N[C@@H](C)C(=O)O)NC1=O [Ac-Ala-Phe(4-I)-Trp-Ala-OH]
- ring closure, conversion ([3]; from Ac-Ala-Phe(4-I)-Trp-Ala-OH, 24-membered ring, Pd(OAc)2 5 mol%/AgBF4/TFA, MW 20 min, DMF, 63.0 mM, 90.0 °C): 60%

Molecule: CC(=O)N[C@@H](C)C(=O)N[C@H]1Cc2ccc(O)c(c2)-c2[nH]c3ccccc3c2C[C@@H](C(=O)N[C@@H](C)C(=O)O)NC(=O)[C@H](C)NC(=O)[C@H](C)NC(=O)[C@H](C)NC1=O [Ac-Ala-Tyr(3-I)-Ala-Ala-Ala-Trp-Ala-OH]
- ring closure, conversion ([3]; from Ac-Ala-Tyr(3-I)-Ala-Ala-Ala-Trp-Ala-OH, 20-membered ring, Pd(OAc)2 5 mol%/AgBF4/2-NO2BzOH, MW 15 min, DMF:PBS 1:1, 80.0 °C): 100%

Molecule: CC(=O)N[C@@H](C)C(=O)N[C@H]1Cc2ccc(O)c(c2)-c2[nH]c3ccccc3c2C[C@@H](C(=O)N[C@@H](C)C(=O)O)NC(=O)[C@H](C)NC(=O)[C@H](C)NC1=O [Ac-Ala-Tyr(3-I)-Ala-Ala-Trp-Ala-OH]
- ring closure, conversion ([3]; from Ac-Ala-Tyr(3-I)-Ala-Ala-Trp-Ala-OH, 17-membered ring, Pd(OAc)2 5 mol%/AgBF4/2-NO2BzOH, MW 15 min, DMF:PBS 1:1, 80.0 °C): 100%

Molecule: CC(=O)N[C@@H](C)C(=O)N[C@H]1Cc2ccc(O)c(c2)-c2[nH]c3ccccc3c2C[C@@H](C(=O)N[C@@H](C)C(=O)O)NC(=O)[C@H](C)NC1=O [Ac-Ala-Tyr(3-I)-Ala-Trp-Ala-OH]
- ring closure, conversion ([3]; from Ac-Ala-Tyr(3-I)-Ala-Trp-Ala-OH, 14-membered ring, Pd(OAc)2 5 mol%/AgBF4/2-NO2BzOH, MW 15 min, DMF:PBS 1:1, 80.0 °C): 100%

Molecule: CC(=O)N[C@H]1Cc2cccc(c2)-c2[nH]c3ccccc3c2C[C@@H](C(N)=O)NC(=O)[C@H](CC(=O)O)NC(=O)CNC(=O)[C@H](CCCNC(=N)N)NC1=O [Ac-Phe(3-I)-Arg-Gly-Asp-Trp-NH2]
- ring closure, conversion ([3]; from Ac-Phe(3-I)-Arg-Gly-Asp-Trp-NH2, 20-membered ring, Pd(OAc)2 5 mol%/AgBF4/TFA, MW 20 min, DMF, 49.0 mM, 90.0 °C): 70%

Molecule: CC(=O)N[C@H]1Cc2cccc(c2)-c2[nH]c3ccccc3c2C[C@@H](C(N)=O)NC(=O)[C@H](CCCNC(=N)N)NC(=O)CNC(=O)[C@H](CC(N)=O)NC1=O [Ac-Phe(3-I)-Asn-Gly-Arg-Trp-NH2]
- ring closure, conversion ([3]; from Ac-Phe(3-I)-Asn-Gly-Arg-Trp-NH2, 20-membered ring, Pd(OAc)2 5 mol%/AgBF4/TFA, MW 20 min, DMF, 49.0 mM, 90.0 °C): 77%

Molecule: C[C@H](N)C(=O)N[C@H]1Cc2cccc(c2)-c2[nH]c3ccccc3c2C[C@@H](C(=O)N[C@@H](C)C(=O)O)NC(=O)[C@H](C)NC(=O)[C@H](CO)NC1=O [H-Ala-Phe(3-I)-Ser-Ala-Trp-Ala-OH]
- ring closure, conversion ([3]; from H-Ala-Phe(3-I)-Ser-Ala-Trp-Ala-OH, 17-membered ring, Pd(OAc)2 5 mol%/AgBF4/TFA, MW 20 min, DMF, 54.0 mM, 90.0 °C): 39%

Molecule: C[C@@H]1NC(=O)[C@H](CCCNC(=N)N)NC(=O)CNC(=O)[C@H](CC(N)=O)NC(=O)[C@H](C)NC(=O)[C@H](Cc2c[nH]c3ccccc23)NC1=O [compound 3] (cyclo(ANGRAW))
- activity against several cancer cell lines (in words) [4]: only the cyclopeptide 4 showed activity

Molecule: CC(C)C[C@@H]1NC(=O)[C@H](Cc2ccc(I)cc2)NC(=O)[C@H](CC(C)C)NC(=O)[C@H](C(C)C)NC(=O)[C@H](CC(C)C)NC1=O [compound 4] (cyclo(LLVL[Phe(4-I)]))
- IC50 [4]: < 10 µM

Molecule: Ac-[Phe(3-I)]NGRW-NH2
- cleaved bond (α-chymotrypsin): m-I-Phe-Asn

Molecule: Ac-[Phe(3-I)]RGDW-NH2
- cleaved bond (α-chymotrypsin): m-I-Phe-Arg
